# Measured values: patent publication US9029404B2, “Apoptosis-inducing agents for the treatment of cancer and immune and autoimmune diseases” (AbbVie Inc., priority 2008, dated 2015)
# Target: GST-Bcl-2 (Homo sapiens, UniProt P10415)
# Assay: Time Resolved-Fluorescence Resonance Energy Transfer (TR-FRET) Bcl-2 binding assay
# Details: competition with F-Bak peptide probe (100 nM); GST-Bcl-2 1 nM; Tb-anti-GST 1 nM; 3 hours at room temperature; Wang's equation
# Method: Determination of the utility of compounds having Formula (I) as binders to and inhibitors of anti-apoptotic Bcl-2 proteins was performed using the Time Resolved-Fluorescence Resonance Energy Transfer (TR-FRET) Assay. Tb-anti-GST antibody was purchased from Invitrogen (Catalog No. PV4216).
# (§1) Representative compounds were serially diluted in dimethyl sulfoxide (DMSO) starting at 50 μM (2× starting concentration; 10% DMSO) and 10 μL were transferred into a 384-well plate. The samples are then mixed on a shaker for 1 minute and incubated for an additional 3 hours at room temperature. For each assay, the probe/antibody and protein/probe/antibody were included on each assay plate as negative and positive controls, respectively. Fluorescence was measured on the Envision (Perkin Elmer) using a 340/35 nm excitation filter and 520/525 (F-Bak peptide) and 495/510 nm (Tb-labeled anti-Histidine antibody) emission filters.
# as §1, with “The” for “Representative compounds were serially diluted in dimethyl sulfoxide (DMSO) starting at 50 μM (2× starting concentration; 10% DMSO) and 10 μL were transferred into a 384-well plate. The”, “were” for “are”
# The inhibition constant (Ki) is the dissociation constant of an enzyme-inhibitor complex or a protein/small molecule complex, wherein the small molecule is inhibiting binding of one protein to another protein. So a large Ki value indicates a low binding affinity and a small Ki value indicates a high binding affinity.
# Chain of GST-Bcl-2 (P10415 whole entry): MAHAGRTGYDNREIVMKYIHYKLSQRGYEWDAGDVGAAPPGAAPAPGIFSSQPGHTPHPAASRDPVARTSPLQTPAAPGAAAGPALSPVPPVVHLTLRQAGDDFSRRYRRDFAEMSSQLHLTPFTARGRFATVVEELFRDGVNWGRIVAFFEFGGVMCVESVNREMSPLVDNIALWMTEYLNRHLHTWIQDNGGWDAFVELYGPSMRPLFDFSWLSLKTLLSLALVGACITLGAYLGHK
row,Compound,Ki
1,"O=C(NS(=O)(=O)c1cnc(OCC2(F)CCOCC2)c(Cl)c1)c1ccc(N2CCN(CC3=C(c4ccc(Cl)cc4)CCN(C(CF)CF)C3)CC2)cc1Oc1cc2cc[nH]c2cc1F [Example 417, N-({5-chloro-6-[(4-fluorotetrahydro-2H-pyran-4-yl)methoxy]pyridin-3-yl}sulfonyl)-4-(4-{[4-(4-chlorophenyl)-1-(1,3-difluoropropan-2-yl)-1,2,5,6-tetrahydropyridin-3-yl]methyl}piperazin-1-yl)-2-[(6-fluoro-1H-indol-5-yl)oxy]benzamide]",6.88 nM
2,"CC1(C)CCC(CN2CCN(c3ccc(C(=O)NS(=O)(=O)c4ccc(OCC5(F)CCOCC5)c([N+](=O)[O-])c4)c(Oc4cc(F)cc5[nH]ncc45)c3)CC2)=C(c2ccc(Cl)cc2)C1 [Example 433, 4-(4-{[2-(4-chlorophenyl)-4,4-dimethylcyclohex-1-en-1-yl]methyl}piperazin-1-yl)-2-[(6-fluoro-1H-indazol-4-yl)oxy]-N-({4-[(4-fluorotetrahydro-2H-pyran-4-yl)methoxy]-3-nitrophenyl}sulfonyl)benzamide]",< 0.01 nM
3,"CC1(C)CCC(CN2CCN(c3ccc(C(=O)NS(=O)(=O)c4ccc(NCC5(F)CCOCC5)c([N+](=O)[O-])c4)c(Oc4cc(F)cc5[nH]ncc45)c3)CC2)=C(c2ccc(Cl)cc2)C1 [Example 418, 4-(4-{[2-(4-chlorophenyl)-4,4-dimethylcyclohex-1-en-1-yl]methyl}piperazin-1-yl)-2-[(6-fluoro-1H-indazol-4-yl)oxy]-N-[(4-{[(4-fluorotetrahydro-2H-pyran-4-yl)methyl]amino}-3-nitrophenyl)sulfonyl]benzamide]",< 0.01 nM
4,"CCC1(O)CCC(CNc2ccc(S(=O)(=O)NC(=O)c3ccc(N4CCN(CC5=C(c6ccc(Cl)cc6)CC(C)(C)CC5)CC4)cc3Oc3cnc(N)c(Cl)c3)cc2[N+](=O)[O-])CC1 (stereo not drawn) [Example 447, 2-[(6-amino-5-chloropyridin-3-yl)oxy]-4-(4-{[2-(4-chlorophenyl)-4,4-dimethylcyclohex-1-en-1-yl]methyl}piperazin-1-yl)-N-[(4-{[(cis-4-ethyl-4-hydroxycyclohexyl)methyl]amino}-3-nitrophenyl)sulfonyl]benzamide]",0.029 nM
5,"CC1(C)CCC(CN2CCN(c3ccc(C(=O)NS(=O)(=O)c4ccc(OCC5(F)CCOCC5)c([N+](=O)[O-])c4)c(Oc4cccc5[nH]nc(N)c45)c3)CC2)=C(c2ccc(Cl)cc2)C1 [Example 429, 2-[(3-amino-1H-indazol-4-yl)oxy]-4-(4-{[2-(4-chlorophenyl)-4,4-dimethylcyclohex-1-en-1-yl]methyl}piperazin-1-yl)-N-({4-[(4-fluorotetrahydro-2H-pyran-4-yl)methoxy]-3-nitrophenyl}sulfonyl)benzamide]",< 0.01 nM
6,"CC1(C)CC(c2ccc(Cl)cc2)=C(CN2CCN(c3ccc(C(=O)NS(=O)(=O)c4ccc(OCC5(F)CCOCC5)c(Cl)c4)c(Oc4cc5cc[nH]c5cc4F)c3)CC2)CO1 [Example 413, N-({3-chloro-4-[(4-fluorotetrahydro-2H-pyran-4-yl)methoxy]phenyl}sulfonyl)-4-(4-{[4-(4-chlorophenyl)-6,6-dimethyl-5,6-dihydro-2H-pyran-3-yl]methyl}piperazin-1-yl)-2-[(6-fluoro-1H-indol-5-yl)oxy]benzamide]",0.739 nM
7,"CC1(C)CCC(CN2CCN(c3ccc(C(=O)NS(=O)(=O)c4ccc(NC[C@H]5CN(C6CC6)CCO5)c([N+](=O)[O-])c4)c(Oc4cnc(N)c(Cl)c4)c3)CC2)=C(c2ccc(Cl)cc2)C1 [Example 442, 2-[(6-amino-5-chloropyridin-3-yl)oxy]-4-(4-{[2-(4-chlorophenyl)-4,4-dimethylcyclohex-1-en-1-yl]methyl}piperazin-1-yl)-N-{[4-({[(2S)-4-cyclopropylmorpholin-2-yl]methyl}amino)-3-nitrophenyl]sulfonyl}benzamide]",< 0.01 nM
8,"CC1(C)CCC(CN2CCN(c3ccc(C(=O)NS(=O)(=O)c4ccc(OC[C@H]5CC[C@@](C)(O)CC5)c([N+](=O)[O-])c4)c(Oc4cnc(N)c(Cl)c4)c3)CC2)=C(c2ccc(Cl)cc2)C1 [Example 436, 2-[(6-amino-5-chloropyridin-3-yl)oxy]-4-(4-{[2-(4-chlorophenyl)-4,4-dimethylcyclohex-1-en-1-yl]methyl}piperazin-1-yl)-N-({4-[(cis-4-hydroxy-4-methylcyclohexyl)methoxy]-3-nitrophenyl}sulfonyl)benzamide]",< 0.01 nM
9,"CC1(C)CCC(CN2CCN(c3ccc(C(=O)NS(=O)(=O)c4cnc(OCC5CCC(C)(O)CC5)c(Cl)c4)c(Oc4cccc5[nH]nc(Cl)c45)c3)CC2)=C(c2ccc(Cl)cc2)C1 (stereo not drawn) [Example 446, N-({5-chloro-6-[(trans-4-hydroxy-4-methylcyclohexyl)methoxy]pyridin-3-yl}sulfonyl)-2-[(3-chloro-1H-indazol-4-yl)oxy]-4-(4-{[2-(4-chlorophenyl)-4,4-dimethylcyclohex-1-en-1-yl]methyl}piperazin-1-yl)benzamide]",0.015 nM
10,"Cn1c(=O)[nH]c2cccc(Oc3cc(N4CCN(CC5=C(c6ccc(Cl)cc6)CC(C)(C)CC5)CC4)ccc3C(=O)NS(=O)(=O)c3ccc(OCC4(F)CCOCC4)c([N+](=O)[O-])c3)c21 [Example 426, 4-(4-{[2-(4-chlorophenyl)-4,4-dimethylcyclohex-1-en-1-yl]methyl}piperazin-1-yl)-N-({4-[(4-fluorotetrahydro-2H-pyran-4-yl)methoxy]-3-nitrophenyl}sulfonyl)-2-[(3-methyl-2-oxo-2,3-dihydro-1H-benzimidazol-4-yl)oxy]benzamide]",< 0.01 nM
11,"CC1(C)CCC(CN2CCN(c3ccc(C(=O)NS(=O)(=O)c4cnc(OCC5(F)CCOCC5)c(Cl)c4)c(Oc4cc(F)cc5[nH]ncc45)c3)CC2)=C(c2ccc(Cl)cc2)C1 [Example 415, N-({5-chloro-6-[(4-fluorotetrahydro-2H-pyran-4-yl)methoxy]pyridin-3-yl}sulfonyl)-4-(4-{[2-(4-chlorophenyl)-4,4-dimethylcyclohex-1-en-1-yl]methyl}piperazin-1-yl)-2-[(6-fluoro-1H-indazol-4-yl)oxy]benzamide]",0.013 nM
12,"CN1CCC(C)(Nc2ccc(S(=O)(=O)NC(=O)c3ccc(N4CCN(CC5=C(c6ccc(Cl)cc6)CC(C)(C)CC5)CC4)cc3Oc3ccccc3Cl)cc2[N+](=O)[O-])CC1 [Example 168, 2-(2-chlorophenoxy)-4-(4-{[2-(4-chlorophenyl)-4,4-dimethylcyclohex-1-en-1-yl]methyl}piperazin-1-yl)-N-({4-[(1,4-dimethylpiperidin-4-yl)amino]-3-nitrophenyl}sulfonyl)benzamide]",28.3 nM
13,"CC(C)(C)OC(=O)N1CCC(c2ccc(Cl)cc2)=C(CN2CCN(c3ccc(C(=O)NS(=O)(=O)c4cnc(OCC5(F)CCOCC5)c(Cl)c4)c(Oc4cc5cc[nH]c5cc4F)c3)CC2)C1 [Example 416, tert-butyl 5-[(4-{4-[({5-chloro-6-[(4-fluorotetrahydro-2H-pyran-4-yl)methoxy]pyridin-3-yl}sulfonyl)carbamoyl]-3-[(6-fluoro-1H-indol-5-yl)oxy]phenyl}piperazin-1-yl)methyl]-4-(4-chlorophenyl)-3,6-dihydropyridine-1(2H)-carboxylate]",7.44 nM
14,"CC1(C)CCC(CN2CCN(c3ccc(C(=O)NS(=O)(=O)c4ccc(NCC5CCC(C)(O)CC5)c([N+](=O)[O-])c4)c(Oc4cnc(N)c(Cl)c4)c3)CC2)=C(c2ccc(Cl)cc2)C1 (stereo not drawn) [Example 434, 2-[(6-amino-5-chloropyridin-3-yl)oxy]-4-(4-{[2-(4-chlorophenyl)-4,4-dimethylcyclohex-1-en-1-yl]methyl}piperazin-1-yl)-N-[(4-{[(trans-4-hydroxy-4-methylcyclohexyl)methyl]amino}-3-nitrophenyl)sulfonyl]benzamide]",< 0.01 nM
15,"CC1(C)CCC(CN2CCN(c3ccc(C(=O)NS(=O)(=O)c4cnc(OC[C@H]5CC[C@H](O)CC5)c(Cl)c4)c(Oc4cc(F)cc5[nH]ncc45)c3)CC2)=C(c2ccc(Cl)cc2)C1 [Example 414, N-({5-chloro-6-[(trans-4-hydroxycyclohexyl)methoxy]pyridin-3-yl}sulfonyl)-4-(4-{[2-(4-chlorophenyl)-4,4-dimethylcyclohex-1-en-1-yl]methyl}piperazin-1-yl)-2-[(6-fluoro-1H-indazol-4-yl)oxy]benzamide]",0.014 nM
16,"CC1(C)CCC(CN2CCN(c3ccc(C(=O)NS(=O)(=O)c4cnc(OCC5(F)CCC(C)(O)CC5)c(Cl)c4)c(Oc4cnc(N)c(Cl)c4)c3)CC2)=C(c2ccc(Cl)cc2)C1 (stereo not drawn) [Example 443, 2-[(6-amino-5-chloropyridin-3-yl)oxy]-N-({5-chloro-6-[(trans-1-fluoro-4-hydroxy-4-methylcyclohexyl)methoxy]pyridin-3-yl}sulfonyl)-4-(4-{[2-(4-chlorophenyl)-4,4-dimethylcyclohex-1-en-1-yl]methyl}piperazin-1-yl)benzamide]",0.029 nM
17,"CC1(C)CCC(CN2CCN(c3ccc(C(=O)NS(=O)(=O)c4ccc(NCC5CN(C6COC6)CCO5)c([N+](=O)[O-])c4)c(Oc4cnc(N)c(Cl)c4)c3)CC2)=C(c2ccc(Cl)cc2)C1 (centres unmarked) [Example 421, 2-[(6-amino-5-chloropyridin-3-yl)oxy]-4-(4-{[2-(4-chlorophenyl)-4,4-dimethylcyclohex-1-en-1-yl]methyl}piperazin-1-yl)-N-{[3-nitro-4-({[4-(oxetan-3-yl)morpholin-2-yl]methyl}amino)phenyl]sulfonyl}benzamide]",< 0.01 nM
